From ChEMBL document CHEMBL5052847, “Identification of compounds that inhibit stress granule formation and tau aggregation by targeting tia1” (2021)
Active and inactive are the calls of the source. The calls are words filed in the database; no cut-off is given here.

Experiments:
Homo sapiens = species on record: Homo sapiens; experiment: Inhibition of recombinant TIA1 (unknown origin) multimerization measured by FRET assay
HT-22 = experiment: Inhibition of TIA1 endogenously expressed in mouse HT-22 cells at 25 to 100 uM assessed as sodium arsenite-induced stress granule formation and measured by FRET assay relative to control; assay type: cell-based; settings: dose 25-100 µM

SMILES	inhibition (Homo sapiens)	inhibition (HT-22)
O=C1c2ccccc2S(=O)(=O)N1c1ccccc1F	Active	Active
O=c1c2ccccc2sn1-c1ccc(Cl)cc1	Active	Active
Cc1ccc(C)c(-n2sc3cc(F)ccc3c2=O)c1	Active	Active
O=c1c2ccccc2sn1-c1ccc(Cl)c(S(=O)(=O)N2CCOCC2)c1	Active	Active
O=C(O)c1ccccc1NS(=O)(=O)c1cccc(-n2sc3ccccc3c2=O)c1	Active	Active

Now from value to compound, other results behind:

inhibition (Homo sapiens)	SMILES	inhibition (HT-22)
Active	CCN(CC)S(=O)(=O)c1cccc(-n2sc3ccccc3c2=O)c1	Active
Active	CN(C)S(=O)(=O)c1cccc(-n2sc3ccccc3c2=O)c1	Active
Active	O=c1c2ccccc2sn1-c1cccc(S(=O)(=O)Nc2ccc(Cl)cc2)c1	Active
Active	O=c1c2ccccc2sn1-c1nccs1	Active
Active	Cc1cccc(-n2sc3ccccc3c2=O)c1	Active
Active	O=c1c2ccccc2sn1-c1cccc(S(=O)(=O)N2CCCCCC2)c1	Active
